Test results reported in ChEMBL document CHEMBL2095176, “GSK Tuberculosis Screening Data”.
Converted amounts (≈) assume the structure as drawn.

test system: Mycobacterium tuberculosis variant bovis BCG; test: microbe, parasite or virus in culture; type: functional

Structure (SMILES) | MIC90
O=C(Nc1nc(-c2ccccn2)cs1)c1ccc(-c2ccccc2F)o1 | 5.2 µM (≈ 1.9 µg/mL)
Cc1nnc(NCc2ccccc2)c2ccccc12 | 4.4 µM (≈ 1.1 µg/mL)
O=C(Nc1nnc(SCc2ccc(F)cc2)s1)c1ccccn1 | 4.6 µM (≈ 1.59 µg/mL)
Brc1c(-c2ccc3c(c2)OCO3)nc2ncccn12 | 2.4 µM (≈ 0.764 µg/mL)
Cn1c(=O)c(C(=O)NNC(=O)c2cccc(Cl)c2)c(O)c2ccccc21 | 5.3 µM (≈ 1.97 µg/mL)
O=C(Nc1ccc(-c2nc3ccccc3o2)cc1)c1cccnc1 | 4.5 µM (≈ 1.42 µg/mL)
CCCCC1=NN(C(=O)c2ccncc2)C(O)(C(F)(F)F)C1 (configuration not stated) | 5.5 µM (≈ 1.73 µg/mL)
CC(=O)Nc1ccc(S(=O)(=O)Nc2ccc(N3CCCCC3)cc2)cc1 | 5.2 µM (≈ 1.94 µg/mL)
Oc1cc(CSc2ccc(Cl)cc2)nc(-c2ccccn2)n1 | 5.3 µM (≈ 1.75 µg/mL)
O=C(Nc1nc(-c2ccccn2)cs1)c1ccco1 | 4.5 µM (≈ 1.22 µg/mL)
O=C(Nc1nnc(-c2ccc(Cl)cc2)o1)c1cccc(C(F)(F)F)c1 | 5.3 µM (≈ 1.95 µg/mL)
Cc1ccc(-n2cc3c(-c4ccc(Cl)cc4)nnc(C)c3n2)cc1 | 5.7 µM (≈ 1.91 µg/mL)
O=C(Nc1ccc(OC(F)(F)F)cc1)NC1CCCCC1 | 4.8 µM (≈ 1.45 µg/mL)
Brc1cncc(-c2cc(NCCCn3ccnc3)nc(-c3ccccc3)n2)c1 | 7.6 µM (≈ 3.31 µg/mL)
Cc1cc(NC(=O)COc2ccc(Cl)cc2)n(-c2nc(C)c(C)c(=O)[nH]2)n1 | 4.8 µM (≈ 1.86 µg/mL)
Cc1ccc(SCCC(=O)Nc2nc(-c3ccccn3)cs2)cc1 | 4.4 µM (≈ 1.56 µg/mL)
O=S(=O)(CCNCC1CC1)c1cccc(Nc2ccc(-c3cccc(F)c3)cn2)c1 | 5.3 µM (≈ 2.26 µg/mL)
Cc1cccc(-c2nc(C(=O)Nc3ccnc4ncnn34)cs2)c1 | 5.3 µM (≈ 1.78 µg/mL)
COc1ccc(NC(=O)N2CCCN(c3nc4c(C)c(C)ccc4cc3C#N)CC2)cc1 | 5.3 µM (≈ 2.28 µg/mL)
c1coc(-c2nnc(Sc3ccnc(N4CCN(c5ccncc5)CC4)n3)n2CCN2CCOCC2)c1 | 5.3 µM (≈ 2.75 µg/mL)
O=C(NNC(=O)c1cccs1)c1csc(COc2ccccc2Cl)n1 | 5.3 µM (≈ 2.09 µg/mL)
COc1cc(C(F)(F)F)nc2ccc(C)c(N)c12 | 9.7 µM (≈ 2.49 µg/mL)
O=C(c1cc2c(s1)CCC2)N1CCN(Cc2ccc3c(c2)OCO3)CC1 | 9.2 µM (≈ 3.41 µg/mL)

Structure (SMILES) | MIC90
Br.Cc1cc(C)cc(OCCCON2C(=N)N=C(N)NC2(C)C)c1 | 7 µM
O=C(CCCOc1ccccc1)Nc1nc(-c2ccccn2)cs1 | 5.4 µM (≈ 1.83 µg/mL)
COc1cc(C2c3c(-c4ccccc4)n[nH]c3C(=O)N2c2ccc(Cl)cc2)ccc1O (configuration not stated) | 5.4 µM (≈ 2.33 µg/mL)
Cc1ccc(C2CC(C(F)(F)F)n3ncc(C(=O)NCc4ccc5c(c4)OCO5)c3N2)cc1 (configuration not stated) | 1.9 µM (≈ 0.871 µg/mL)
c1ccc(CCNc2cc(-c3ccccc3)nc3nncn23)cc1 | 8.1 µM (≈ 2.55 µg/mL)
Cc1cnc(CNCc2ccc(-c3ccc(C(=O)NCCc4ccccc4)c(F)c3)cc2)cn1 | 5.5 µM (≈ 2.5 µg/mL)
Cc1nc(-c2cccnc2)nc(N2CCCN(Cc3ccc(F)cc3)CC2)c1Cl | 5.5 µM (≈ 2.27 µg/mL)
Cc1cc(C(=O)Nc2nc(C)c(C)s2)c2c(C)nn(C(C)C)c2n1 | 5.5 µM (≈ 1.89 µg/mL)
O=C(Nc1nc(-c2ccccn2)cs1)c1cc2c(s1)CCCC2 | 5.5 µM (≈ 1.88 µg/mL)
COc1ccccc1N1CCN(c2cccc3c2nc(/C=C/c2ccncc2)n3C2CCNCC2)CC1 | 5.5 µM (≈ 2.72 µg/mL)
Cc1ccc(-c2nnc3sc(Cc4cccs4)nn23)cc1 | 5.5 µM (≈ 1.72 µg/mL)
CC(C)N1CCN(c2nc(CCN3CCN(c4cccc(C(F)(F)F)c4C#N)CC3)cs2)CC1 | 5.5 µM (≈ 2.71 µg/mL)
Cc1cccc(CC(=N)NCCOc2cccc(Cl)c2)c1 | 5.5 µM (≈ 1.67 µg/mL)
COc1cc(OC)c(C(=O)Nc2cccc3c2CCN(C)C3C)cc1Br (configuration not stated) | 5.5 µM (≈ 2.31 µg/mL)
O=C(O)C(F)(F)F.c1ccc2c(-c3ccc(CNCC4CCNC4)cc3)cncc2c1 (configuration not stated) | 7.8 µM
COc1ccc(-n2ncc3c(N4CCNCC4)nc(C4CC4)nc32)cc1 | 5.6 µM (≈ 1.96 µg/mL)
CC(c1nc2ccccc2s1)N(C)C(=O)c1cccc(-n2cnnn2)c1 (configuration not stated) | 5.6 µM (≈ 2.04 µg/mL)
COc1ccc(-c2ccc(Nc3cccc(S(=O)(=O)CCNCC4CC4)c3)nc2)cn1 | 5.6 µM (≈ 2.46 µg/mL)
CCOc1ccc(C(=O)Nc2nc(-c3ccccn3)cs2)cc1OCC | 5.6 µM (≈ 2.07 µg/mL)
CN(C)c1cc(C(=O)NCC2CCCCC2)ccc1NC(=O)OCc1ccccc1 | 5.6 µM (≈ 2.29 µg/mL)
CCCc1ccc(NC(=O)c2ccc(CN3CCN(Cc4ccsc4)CC3)cc2)cc1 | 5.6 µM (≈ 2.43 µg/mL)
CCOc1cc(OC)c(C(=O)Nc2cccc3c2CCN(C)C3C)cc1Cl (configuration not stated) | 5.6 µM (≈ 2.18 µg/mL)
CNc1nc(SCC(=O)N(C)Cc2ccc(Cl)s2)nc2ccccc12 | 8.9 µM (≈ 3.5 µg/mL)

Structure (SMILES) | MIC90
O=C(Nc1ccc2c(c1)OCC(=O)N2Cc1ccccc1Cl)NC1CCCCC1 | 5.7 µM (≈ 2.36 µg/mL)
COc1ccc(-c2cc3nccc(C4CCNCC4)n3n2)cc1 | 5.7 µM (≈ 1.76 µg/mL)
O=C(COc1ccc(-c2ccccc2)cc1)NNC(=O)c1ccncc1 | 5.7 µM (≈ 1.98 µg/mL)
COc1ccc(-c2cnc(Nc3cccc(S(=O)(=O)CCN4CCc5ccccc5C4)c3)nc2)cn1 | 5.7 µM (≈ 2.86 µg/mL)
Cc1cc2cc(C)c(NCCN)nc2cc1C | 5.7 µM (≈ 1.31 µg/mL)
O=C(Nc1nnc(-c2ccccc2)o1)c1ccc(F)cc1 | 5.8 µM (≈ 1.64 µg/mL)
CN(C)S(=O)(=O)c1ccc(C(=O)Nc2nnc(-c3ccc(Cl)s3)o2)cc1 | 5.7 µM (≈ 2.35 µg/mL)
Nc1cc(-c2ccc(Cl)cc2)nn1-c1cccc(C(=O)NCC2CC(=O)N(c3ccccc3)C2)c1 (configuration not stated) | 5.9 µM (≈ 2.87 µg/mL)
COc1cccc(-c2cc(OC[C@@H]3CCCN3)cnc2-c2cccc(C(F)(F)F)c2)c1 | 5.9 µM (≈ 2.53 µg/mL)
COc1ccccc1C(=O)N(Cc1cccnc1)Cc1cc2c(C)cc(C)cc2nc1Cl | 5.9 µM (≈ 2.63 µg/mL)
COc1ccc(C2CC(=O)N(Cc3cccc(F)c3)c3ccccc3S2)cc1OC (configuration not stated) | 5.9 µM (≈ 2.5 µg/mL)
Cc1ccc2[nH]c(SCC(=O)NNC(=O)c3cccs3)nc2c1 | 5.9 µM (≈ 2.04 µg/mL)
Cc1cccc(C)c1CNc1c(C(N)=O)cnc2c(C)cccc12 | 5.9 µM (≈ 1.88 µg/mL)
COc1cc(-c2ccccc2)c(Cl)cc1C(=O)Nc1cccc2c1CCN(C)C2 | 5.9 µM (≈ 2.4 µg/mL)
CCN(Cc1nc2ccccc2c(=O)[nH]1)C1CCCc2cccnc21 (configuration not stated) | 4.4 µM (≈ 1.47 µg/mL)
Cc1ccc(C(=O)N2N=C(C(F)(F)F)CC2(O)c2ccncc2)cc1 (configuration not stated) | 4.4 µM (≈ 1.54 µg/mL)
Cc1ccc(-c2nnc(NC(=O)c3cccc(C(F)(F)F)c3)o2)c(C)c1 | 4.4 µM (≈ 1.59 µg/mL)
O=C(NNC(=O)c1cccs1)c1cnn(-c2ccccc2)n1 | 4.5 µM (≈ 1.41 µg/mL)
O=C(c1[nH]nc2c1CCCC2)N1CCN(Cc2ccc3c(c2)OCO3)CC1 | 3.9 µM (≈ 1.44 µg/mL)
O=c1cc(N2CCCNCC2)c(Cl)nn1CCCNS(=O)(=O)c1ccc(-c2ccccc2)cc1 | 4.6 µM (≈ 2.31 µg/mL)
O=C(COc1ccc(Br)cc1Cl)Nc1nc(-c2ccccn2)cs1 | 4.6 µM (≈ 1.95 µg/mL)
CC1(C(=O)Nc2cccc3cccnc23)CCN1CC1CC1 (configuration not stated) | 4.6 µM (≈ 1.36 µg/mL)
Cc1cc(C(=O)Nc2nc(-c3ccccn3)cs2)no1 | 4.6 µM (≈ 1.32 µg/mL)

Structure (SMILES) | MIC90
Cn1nc(C(=O)N2CCc3sccc3C2c2cccs2)c2ccccc2c1=O (configuration not stated) | 4.6 µM (≈ 1.87 µg/mL)
Cn1cc(C(=O)NCCc2ccccc2)c(=O)c2cc(S(=O)(=O)N3CCCC3)ccc21 | 4.6 µM (≈ 2.02 µg/mL)
O=C(Nc1ccc(C(=O)Nc2cccc(C3=NCCN3)c2)cc1)Nc1ccc(C2=NCCN2)cc1 | 4.6 µM (≈ 2.15 µg/mL)
CCOc1cc(CC)c(Br)cc1C(=O)Nc1cccc2c1CCN(C)C2 | 4.6 µM (≈ 1.92 µg/mL)
O=C(C=Cc1ccco1)N1CCN(Cc2ccc3c(c2)OCO3)CC1 | 7 µM (≈ 2.38 µg/mL)
CCc1ccc(S(=O)(=O)Nc2cc(CN3CCN(CCC(C)C)CC3)ccc2C)cc1.O=C(O)C(F)(F)F.O=C(O)C(F)(F)F | 6.3 µM
Cn1ccnc1CNCCS(=O)(=O)c1cccc(Nc2ccc(-c3cccc(F)c3)cn2)c1 | 4.3 µM (≈ 2 µg/mL)
Cc1cc(C)n(-c2nc(C)c(Br)c(N(C)CCO)n2)n1 | 4.7 µM (≈ 1.6 µg/mL)
FC(F)(F)c1cc(N2CCCNCC2)c2ccccc2n1 | 4.7 µM (≈ 1.39 µg/mL)
CN(Cc1nc2ccccc2s1)C(=O)c1ccc2c(c1)CC(c1ccccc1)OC2=O (configuration not stated) | 4.7 µM (≈ 2.01 µg/mL)
COc1ccc(-c2nsc(NC(=O)COc3ccc(C)cc3)n2)cc1OC | 4.7 µM (≈ 1.81 µg/mL)
c1ccc(-c2ccc(CN3CCC4(CC3)OCCc3sccc34)s2)cc1 | 4.7 µM (≈ 1.79 µg/mL)
O=c1oc2ccccc2nc1CS(=O)(=O)c1ccc(Br)cc1 | 4.7 µM (≈ 1.79 µg/mL)
C[C@H]1CN(Cc2cccc(-c3cc(CNC(=O)c4ccc(CC5CCNCC5)cc4)ccc3F)c2)CCN1 | 4.7 µM (≈ 2.42 µg/mL)
O=C(CSc1ccc(Cl)cc1)Nc1nc(-c2ccccn2)cs1 | 4.7 µM (≈ 1.7 µg/mL)
c1ncn(-c2ccc(COc3ccc(-n4cncn4)cc3)cc2)n1 | 6.8 µM (≈ 2.16 µg/mL)
FC(F)(F)c1ccc2c(N3CCCNCC3)ncc(-c3ccccc3)c2n1 | 4.8 µM (≈ 1.79 µg/mL)
COc1ccc(-c2nc(C(=O)N3CCCCC3c3nc4ccccc4s3)cs2)cc1 (configuration not stated) | 4.8 µM (≈ 2.09 µg/mL)
CCc1ccc(C2CC(C(F)(F)F)n3ncc(C(=O)NCc4ccc5c(c4)OCO5)c3N2)cc1 (configuration not stated) | 4.8 µM (≈ 2.27 µg/mL)
CCOc1ccc(-n2nc3c(C)nnc(NCc4ccccc4)c3c2C)cc1 | 4.8 µM (≈ 1.79 µg/mL)
O=C(CSc1ccc(Cl)cc1)NNC(=O)c1cccs1 | 4.8 µM (≈ 1.57 µg/mL)
CC(C)n1ncc2c(C(=O)NCC(c3cccs3)N3CCOCC3)cc(-c3ccccc3)nc21 (configuration not stated) | 2.5 µM (≈ 1.19 µg/mL)
O=C(OCc1c(F)cccc1Cl)c1ccc(-n2ncc(Cl)c(Cl)c2=O)cc1 | 3.7 µM (≈ 1.58 µg/mL)

Structure (SMILES) | MIC90
O=C(NCc1ccccc1)N1CCN(Cc2ccc3c(c2)OCO3)CC1 | 4.9 µM (≈ 1.73 µg/mL)
CCc1ccc([C@@H]2C[C@H](C(F)(F)F)n3ncc(C(=O)NCc4ccc(OC)cc4)c3N2)cc1 | 2.7 µM (≈ 1.24 µg/mL)
Cc1ccc(-c2nnc(NC(=O)c3cccc(F)c3)o2)cc1C | 5 µM (≈ 1.56 µg/mL)
Cc1sc2nc(C3CC3)n(C3CCN(CC(=O)N4CCCC4)CC3)c(=O)c2c1C | 5 µM (≈ 2.07 µg/mL)
CCCNc1cc(-c2ccccc2)nc(-n2nc(C)cc2C)n1 | 5 µM (≈ 1.54 µg/mL)
O=C(CC1NC(=O)c2ccccc21)Nc1cccc(-c2cc(-c3c(Cl)cccc3Cl)no2)c1 (configuration not stated) | 5 µM (≈ 2.39 µg/mL)
Cc1ccc2nc(C)c(-c3ccn(Cc4ccccc4)n3)n2c1 | 5.9 µM (≈ 1.78 µg/mL)
CCCc1cc(N2CCN(CC#N)CC2)n2ncc(-c3ccccc3)c2n1 | 5.1 µM (≈ 1.84 µg/mL)
O=C(CCc1cc2ccccc2o1)NNC(=O)c1cccs1 | 5.1 µM (≈ 1.6 µg/mL)
Clc1cc(N2CCN(c3ccncc3)CC2)ncn1 | 5.1 µM (≈ 1.41 µg/mL)
CCSc1cccc(C(=O)Nc2nnc(-c3ccc(C)cc3C)o2)c1 | 5.2 µM (≈ 1.84 µg/mL)
CCS(=O)(=O)c1cccc(C(=O)Nc2nc(-c3ccccn3)cs2)c1 | 5.2 µM (≈ 1.94 µg/mL)
O=C(Nc1nc(-c2ccccn2)cs1)c1cccc(S(=O)(=O)N2CCCCC2)c1 | 5.2 µM (≈ 2.23 µg/mL)
O=C(Nc1ccccc1-c1nc(Cl)cs1)OCC1CCNCC1 | 5.2 µM (≈ 1.83 µg/mL)
Cc1nn(Cc2ccccc2)c(Cl)c1C(=O)NC1CCCCCC1 | 3.2 µM (≈ 1.11 µg/mL)
Fc1ccccc1-c1noc(N2CCN(Cc3ccc4c(c3)OCO4)CC2)n1 | 6.7 µM (≈ 2.56 µg/mL)
N=C(Nc1nc(-c2ccccn2)cc2ccccc12)c1cccc(Cl)c1 | 0.6 µM (≈ 0.215 µg/mL)
Cc1cc(NC(=O)c2cc(Br)ccc2Cl)n(-c2nc(C)c(C)c(=O)[nH]2)n1 | 5.3 µM (≈ 2.31 µg/mL)
Cc1ccc2sc(N(CCCn3ccnc3)C(=O)c3ccco3)nc2c1C | 5.6 µM (≈ 2.13 µg/mL)
Cc1ccc2c(NC(=O)Nc3ccc(N(C)C)cc3)cc(C)nc2c1 | 5.8 µM (≈ 1.94 µg/mL)
